According to US20230067378A1, “COMPOSITIONS AND METHODS FOR THE TREATMENT OF ESTROGEN-DEPENDENT DISORDERS” (ObsEva S.A., priority 2018, published 2023):

Legend:
[1] = adverse events, same clinical trial; assay type: in vivo, human
Procedure: (§1) The experiments described in this example were conducted as part of a single-center, open-label, randomized, parallel-group clinical trial in 32 pre-menopausal women. Following screening assessments, and during the second half of the menstrual cycle, women received norethindrone (5 mg, three-times daily for 10 days) to synchronize menstrual cycles. After menstrual cycle synchronization, subjects were randomized with a 1:1 ratio to one of two treatment arms: (i) a cohort receiving once-daily administration of compound (VI) (200 mg per day, administered in the form of a choline salt) with concurrent onset of add-back therapy administration for 10 weeks (“Concurrent-ABT”), or (ii) a cohort receiving pre-treatment with compound (VI) (200 mg per day, administered in the form of a choline salt) for 4 weeks followed by combined daily administration of compound (VI) and add-back therapy (“Delayed-ABT”). The add-back therapy used in these experiments contained 1.0 mg of E2 and 0.5 mg of norethindrone acetate, and was administered to subjects once daily.
(§2) The main treatment outcomes and endpoints measured during these experiments included (i) a qualitative assessment of uterine blood loss, which was recorded on a daily basis throughout the study by characterizing each subject's bleeding pattern using one of the following four categories: “no bleeding,” “spotting” (light staining, dark blood, no sanitary protection needed or only panty liner), “bleeding” (1-4 completely soiled maxi sanitary towels or 1-8 soiled tampons or equivalent combination of the two), or “heavy bleeding” (>4 completely soiled maxi sanitary towels or >8 soiled tampons or equivalent combination of the two); (ii) a bi-weekly assessment of each subject's circulating E2 concentration; (iii) a bi-weekly assessment of each subject's circulating progesterone concentration (measured using a validated commercial chemiluminescence immunoassay method (Elecsys Progesterone III, Roche, Burgess Hill, UK)); (iv) the pharmacokinetic profile of compound (VI) and the add-back therapy; and (v) adverse events.

[2] = test system: β17-estradiol (E2); test: circulating E2 concentration, same clinical trial; assay type: in vivo, human; conditions: for median E2 level: Delayed-ABT cohort, Compound (VI) alone
Procedure: as §1, §2

[3] = test system: progesterone; test: circulating progesterone concentration, same clinical trial; assay type: in vivo, human; conditions: both cohorts (Concurrent-ABT and Delayed-ABT), exception of a single outlier subject, FIG. 3B
Procedure: The experiments described in this example were conducted as part of a single-center, open-label, randomized, parallel-group clinical trial in 32 pre-menopausal women. Following screening assessments, and during the second half of the menstrual cycle, women received norethindrone (5 mg, three-times daily for 10 days) to synchronize menstrual cycles. […]
as §2

[4] = half-life in a human patient; conditions: in vivo, also the choline salt (VIa)
[5] = target: T1, human GnRH receptor (Homo sapiens, UniProt P30968); test: affinity for human GnRH receptor; assay type: binding; conditions: kind of constant not given; also for salts such as the choline salt
T1 sequence (P30968 1-328): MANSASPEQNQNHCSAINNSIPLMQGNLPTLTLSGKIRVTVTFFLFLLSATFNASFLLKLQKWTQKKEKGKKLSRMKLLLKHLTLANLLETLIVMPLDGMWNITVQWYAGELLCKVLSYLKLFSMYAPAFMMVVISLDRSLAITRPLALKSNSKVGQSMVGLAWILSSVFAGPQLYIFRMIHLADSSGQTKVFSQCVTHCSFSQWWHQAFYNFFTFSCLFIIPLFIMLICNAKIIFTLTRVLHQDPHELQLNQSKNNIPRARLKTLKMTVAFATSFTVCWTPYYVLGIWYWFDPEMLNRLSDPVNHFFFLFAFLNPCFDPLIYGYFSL

[6] = Days 29-42, treatment B (Delayed-ABT), N=15
[7] = Days 43-56, Overall (A+B), N=29
[8] = Days 43-56, treatment A (Concurrent-ABT), N=14
[9] = Days 43-56, treatment B (Delayed-ABT), N=15
[10] = Days 57-70, Overall (A+B), N=29
[11] = Days 57-70, treatment A (Concurrent-ABT), N=14
[12] = Days 57-70, treatment B (Delayed-ABT), N=15
[13] = events of all reported adverse events, both cohorts

COc1cc(F)c(-n2c(=O)[nH]c3csc(C(=O)O)c3c2=O)cc1OCc1c(OC)ccc(F)c1F [Compound (VI), 3-[2-fluoro-5-(2,3-difluoro-6-methoxybenzyloxy)4-methoxyphenyl]-2,4-dioxo-1,2,3,4-tetrahydrothieno [3,4d]pyrimidine-5-carboxylic acid]
Hot Flush, subjects (%), Plasma Estradiol Level <20 pg/mL [1, 6]: (13.3%) | Hot Flush, subjects (%), Plasma Estradiol Level >50 pg/mL [1, 6]: (0.0%) | Hot Flush, subjects (n), Plasma Estradiol Level 20-50 pg/mL [1, 6]: 3 | Hot Flush, subjects (n), Plasma Estradiol Level <20 pg/mL [1, 6]: 2 | Hot Flush, subjects (n), Plasma Estradiol Level >50 pg/mL [1, 6]: 0 | Hot Flush, subjects (%), Plasma Estradiol Level 20-50 pg/mL [1, 7]: (0.0%) | Hot Flush, subjects (%), Plasma Estradiol Level <20 pg/mL [1, 7]: (3.4%) | Hot Flush, subjects (%), Plasma Estradiol Level >50 pg/mL [1, 7]: (0.0%) | Hot Flush, subjects (n), Plasma Estradiol Level 20-50 pg/mL [1, 7]: 0 | Hot Flush, subjects (n), Plasma Estradiol Level <20 pg/mL [1, 7]: 1 | Hot Flush, subjects (n), Plasma Estradiol Level >50 pg/mL [1, 7]: 0 | Hot Flush, subjects (%), Plasma Estradiol Level 20-50 pg/mL [1, 8]: (0.0%) | Hot Flush, subjects (%), Plasma Estradiol Level <20 pg/mL [1, 8]: (0.0%) | Hot Flush, subjects (%), Plasma Estradiol Level >50 pg/mL [1, 8]: (0.0%) | Hot Flush, subjects (n), Plasma Estradiol Level 20-50 pg/mL [1, 8]: 0 | Hot Flush, subjects (n), Plasma Estradiol Level <20 pg/mL [1, 8]: 0 | Hot Flush, subjects (n), Plasma Estradiol Level >50 pg/mL [1, 8]: 0 | Hot Flush, subjects (%), Plasma Estradiol Level 20-50 pg/mL [1, 9]: (0.0%) | Hot Flush, subjects (%), Plasma Estradiol Level <20 pg/mL [1, 9]: (6.7%) | Hot Flush, subjects (%), Plasma Estradiol Level >50 pg/mL [1, 9]: (0.0%) | Hot Flush, subjects (n), Plasma Estradiol Level 20-50 pg/mL [1, 9]: 0 | Hot Flush, subjects (n), Plasma Estradiol Level <20 pg/mL [1, 9]: 1 | Hot Flush, subjects (n), Plasma Estradiol Level >50 pg/mL [1, 9]: 0 | Hot Flush, subjects (%), Plasma Estradiol Level 20-50 pg/mL [1, 10]: (0.0%) | Hot Flush, subjects (%), Plasma Estradiol Level <20 pg/mL [1, 10]: (0.0%) | Hot Flush, subjects (%), Plasma Estradiol Level >50 pg/mL [1, 10]: (0.0%) | Hot Flush, subjects (n), Plasma Estradiol Level 20-50 pg/mL [1, 10]: 0 | Hot Flush, subjects (n), Plasma Estradiol Level <20 pg/mL [1, 10]: 0 | Hot Flush, subjects (n), Plasma Estradiol Level >50 pg/mL [1, 10]: 0 | Hot Flush, subjects (%), Plasma Estradiol Level 20-50 pg/mL [1, 11]: (0.0%) | Hot Flush, subjects (%), Plasma Estradiol Level <20 pg/mL [1, 11]: (0.0%) | Hot Flush, subjects (%), Plasma Estradiol Level >50 pg/mL [1, 11]: (0.0%) | Hot Flush, subjects (n), Plasma Estradiol Level 20-50 pg/mL [1, 11]: 0 | Hot Flush, subjects (n), Plasma Estradiol Level <20 pg/mL [1, 11]: 0 | Hot Flush, subjects (n), Plasma Estradiol Level >50 pg/mL [1, 11]: 0 | Hot Flush, subjects (%), Plasma Estradiol Level 20-50 pg/mL [1, 12]: (0.0%) | Hot Flush, subjects (%), Plasma Estradiol Level <20 pg/mL [1, 12]: (0.0%) | Hot Flush, subjects (%), Plasma Estradiol Level >50 pg/mL [1, 12]: (0.0%) | Hot Flush, subjects (n), Plasma Estradiol Level 20-50 pg/mL [1, 12]: 0 | Hot Flush, subjects (n), Plasma Estradiol Level <20 pg/mL [1, 12]: 0 | Hot Flush, subjects (n), Plasma Estradiol Level >50 pg/mL [1, 12]: 0 | tolerability ([1]; both cohorts): well-tolerated | adverse events: headache [1, 13]: 38/166 | adverse events: hot flushes [1, 13]: 19/166 | median E2 levels, window never left ([2]; Concurrent-ABT cohort, whole study): 20 to 50 pg/mL | median E2 level ([2]; by week 2): 3.7 pg/mL | median E2 level ([2]; by week 4): 4.1 pg/mL | circulating progesterone [3]: sustained reduction in circulating progesterone | half-life [4]: 14 to 15 h | Ki [5]: 27.4 nM
